# Laboratory results: ChEMBL document CHEMBL1201862, “PubChem BioAssay data set” (2004)
# Where “and” joins values, the source holds several entries; their conditions need not be identical. Equal entries are not always repeated.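 Five concentrations, 48 hours, 96-well plates. At the GI50, growth is halved.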 Calls of active or inactive are those of the source. Cut-off read from the data, not from the text of the source: active = GI50 up to about 1.1 µM and inactive = higher.
# How the values were obtained:
# Assay in all cases: growth of human tumour cells (NCI), 48 h
# [1] = system: BT-549
# [2] = system: DMS-273
# [3] = system: XF498
# [4] = system: KM-20L2
# [5] = system: HOP-18
# [6] = system: LXFL 529
# [7] = system: DLD-1
# [8] = system: M19-MEL
# [9] = system: RXF 631
Compound,GI50 [1],GI50 [4],GI50 [6],GI50 [7],GI50 [8],further results
Clc1ccc(/C=C/c2nc(-c3ccccc3)cn3c2nc2ccccc23)cc1Cl,61.7 µM (inactive),,,,,
Cc1nc(Nc2ccccc2)sc1C(=O)CC(=O)C(=O)Nc1c(C(C)C)cccc1C(C)C,,85.1 µM (inactive),60 µM (inactive),87.9 µM (inactive),> 100 µM (inactive),GI50 [2]: > 100 µM (inactive); GI50 [3]: > 100 µM (inactive); GI50 [5]: > 100 µM (inactive)
COCCCN1C(=O)C2c3[nH]c4ccccc4c3C3CCC(C(C)(C)C)CC3C2C1=O (centres undefined),20.5 µM (inactive),,,,,
O=C1CCCC/C1=C/C=C/c1ccccc1,,68.1 µM (inactive),64.9 µM (inactive),46.9 µM (inactive),50.9 µM (inactive),GI50 [3]: > 100 µM (inactive); GI50 [5]: > 100 µM (inactive); GI50 [9]: 69.2 µM (inactive)
S=C(NCc1ccccc1)N/N=C/c1ccccn1,8.02 µM (inactive),,,,,
CCCCCC(C)C[C@H]1CO[C@H](c2ccc[nH]2)N[C@H]1C(=O)OC (some centres undefined),> 100 µM (inactive),,,,,
COc1cc(/C=C/C=C2\CCC/C(=C\C=C\c3ccc(O)c(OC)c3)C2=O)ccc1O,17.2 µM (inactive),,,,,
Nc1ccc2nc(-c3ccccn3)c(-c3ccccn3)nc2c1,> 100 µM (inactive),,,,,
O=C1NC(N2CCOCC2)=N/C1=C\c1ccc(Cl)cc1,> 100 µM (inactive),,,,,
COC(=O)/C=C1\C(=O)Nc2ccc(Br)cc21,1.69 µM (inactive),,,,,
Cc1ccc2c(c1)C(=O)C(Cc1ccccc1C(=O)O)C2 (centres undefined),> 100 µM (inactive),,,,,
COc1ccc(/C=C/c2nnc(S)[nH]2)cc1,,> 100 µM (inactive),> 100 µM (inactive),> 100 µM (inactive),> 100 µM (inactive),GI50 [2]: > 100 µM (inactive); GI50 [3]: 79.3 µM (inactive); GI50 [9]: > 100 µM (inactive)
COc1cc(Nc2ccc3c(c2)CCC3)nc(OC)n1,33.3 µM (inactive),,,,,
CC1Cn2c(nc3ccccc32)NC1=O (centres undefined),> 100 µM (inactive),,,,,
O=C(/C=C/c1ccccc1)Oc1ccc(C(=O)/C=C/c2ccccc2)cc1,6.49 µM (inactive),,,,,
C#CC[N+](C)(CC#C)CC#C,,> 100 µM (inactive),> 100 µM (inactive),> 100 µM (inactive),> 100 µM (inactive),GI50 [2]: > 100 µM (inactive); GI50 [3]: > 100 µM (inactive); GI50 [9]: > 100 µM (inactive)
COc1oc(C2C/C(=C/C(C)=C/C(C)=C/C(C)=C/c3ccc([N+](=O)[O-])cc3)CO2)c(C)c(=O)c1C (centres undefined),2.73 µM (inactive),,,,,
Cc1ccc(C2=C(c3ccccc3)C(O)(c3ccc(C)cc3)C(c3ccccc3)=C2c2ccc(C)cc2)cc1,,> 100 µM (inactive),60.1 µM (inactive),> 100 µM (inactive),> 100 µM (inactive),GI50 [2]: > 100 µM (inactive); GI50 [3]: > 100 µM (inactive)
O/N=C1/C(=C/c2ccc(Br)cc2)CCCC1C(NO)c1ccc(Br)cc1 (centres undefined),,17.3 µM (inactive),14.8 µM (inactive),,17 µM (inactive),GI50 [2]: 13.1 µM (inactive); GI50 [5]: 18.9 µM (inactive); GI50 [9]: 14.8 µM (inactive)
Nc1nc(NC2C=C(CO)C(O)C2O)c([N+](=O)[O-])c(=O)[nH]1 (centres undefined),,> 100 µM (inactive),> 100 µM (inactive),> 100 µM (inactive),> 100 µM (inactive),GI50 [2]: > 100 µM (inactive); GI50 [3]: > 100 µM (inactive); GI50 [5]: > 100 µM (inactive)
Cc1ccc(C(=O)/C=C/c2ccccc2Cl)cc1,,16.7 µM (inactive),15.3 µM (inactive),19.8 µM (inactive),18.8 µM (inactive),GI50 [2]: 15.2 µM (inactive); GI50 [5]: 26.8 µM (inactive)

Compound,GI50 [1],GI50 [4],GI50 [6],GI50 [7],GI50 [8],further results
N#Cc1c(N2CCCC2)ncn(-c2ccccc2)c1=S,> 100 µM (inactive),,,,,
O=C1NC(=O)C(c2c[nH]c3cc(Br)ccc23)=C1c1cnc[nH]1,13.5 µM (inactive),,,,,
CC(=O)CCNc1ccc(-c2cc(-c3ccc(N(C)C)cc3)nc3ccc4ccccc4c23)cc1,35.9 µM (inactive),,,,,
COC1=CC(=O)OC(/C=C(C)/C=C/C2=C(C)CCCC2(C)C)C1 (centres undefined),,36 µM (inactive),> 100 µM (inactive),> 100 µM (inactive),> 100 µM (inactive),GI50 [2]: > 100 µM (inactive)
C[N+](C)(C)CC1CCC(C[N+](C)(C)C)C1=NO (centres undefined),,> 100 µM (inactive),> 100 µM (inactive),> 100 µM (inactive),> 100 µM (inactive),GI50 [3]: > 100 µM (inactive); GI50 [5]: > 100 µM (inactive)
Cc1cc(NS(=O)(=O)c2ccc(Nc3c4ccccc4nc4c(C(=O)NCCN(C)C)ccc(Cl)c34)cc2)no1,,11 µM (inactive),4.67 µM (inactive),3.94 µM (inactive),3.39 µM (inactive),GI50 [3]: 13.8 µM (inactive); GI50 [9]: 0.851 µM (active)
CN1C[C@@H]2CCCN2P1Oc1cccc2cccnc12 (some centres undefined),> 100 µM (inactive),,,,,
COc1cc(C=O)c(-c2cc(OC)c(OC)cc2C=O)cc1OC,,> 100 µM (inactive),> 100 µM (inactive),65 µM (inactive),> 100 µM (inactive),GI50 [2]: > 100 µM (inactive); GI50 [5]: > 100 µM (inactive)
Clc1ccccc1C(Nc1cnccn1)Nc1cnccn1,> 100 µM (inactive),,,,,
O=C(OCCC12CC3CC(CC(C3)C1)C2)c1ccc(NCc2cc(O)ccc2O)cc1,0.241 µM (active),,,,,
NS(=O)(=O)c1ccc(/N=N/c2ccc(O)c(C(=O)O)c2)cc1 [SALAZOSULFAMIDE],> 100 µM (inactive),,,,,
Cc1ccc2[nH]c(=O)c(-c3cnc(O)nn3)c(O)c2c1,80.2 µM (inactive),,,,,
Cc1cc2[nH]c3c(C#N)c(-c4ccccc4)c(/C=N/c4ccc(F)cc4)c(=O)n3c2cc1C,> 100 µM (inactive),,,,,
CC1(C)CC(C2CC(C)(C)CC(C)(C)[C@H]2O)[C@@H](O)C(C)(C)C1 (some centres undefined),,> 100 µM (inactive),> 100 µM (inactive),,> 100 µM (inactive),GI50 [2]: > 100 µM (inactive); GI50 [3]: > 100 µM (inactive)
O=c1c2ccccc2nc(-c2cccc([N+](=O)[O-])c2)n1O,12 µM (inactive),,,,,
CCOc1ccc(NC(=O)C(=O)CC(=O)C2=C(C)Nc3ccccc3S2)cc1,,> 50 µM (inactive),,> 50 µM (inactive),> 50 µM (inactive),GI50 [3]: > 50 µM (inactive); GI50 [5]: > 50 µM (inactive); GI50 [9]: > 50 µM (inactive)
Cc1sc2nc(-c3ccc(Cl)c([N+](=O)[O-])c3)c(/C=N/NC(=N)N)n2c1C,1.7 µM (inactive),,,,,
O=c1c2ccccc2[nH]c2ccc3c(Cl)n[nH]c3c12,,51.9 µM (inactive),51.6 µM (inactive),19.5 µM (inactive),42.6 µM (inactive),GI50 [2]: 40.3 µM (inactive); GI50 [5]: 33.2 µM (inactive); GI50 [9]: 37.3 µM (inactive)
CC1=C(/C(C)=N/NC(=O)c2ccccc2O)C(C)C(/C(C)=N/NC(=O)c2ccccc2O)=C(C)N1,,33.3 µM (inactive),23.3 µM (inactive),27.9 µM (inactive),18.7 µM (inactive),GI50 [3]: 15.1 µM (inactive); GI50 [9]: 37.1 µM (inactive)
CC1C(c2ccccc2O)c2cc3c(cc2OC1N1CCOCC1)OCO3 (centres undefined),27.4 µM (inactive),,,,,
Cc1ccc(N/N=C2\C3=C(CCC(C)(C)O3)C(=O)c3ccccc32)cc1,26.1 µM (inactive),,,,,

Compound,GI50 [1],GI50 [4],GI50 [6],GI50 [7],GI50 [8],further results
CCCCCCCCCCCCCCCCCCOCC(C[N+]1(C)CCC(O)CC1)OCC (centres undefined),,,2.84 µM (inactive),11.8 µM (inactive),3.52 µM (inactive),GI50 [2]: 2.28 µM (inactive); GI50 [3]: 13.3 µM (inactive); GI50 [9]: 4.93 µM (inactive)
COC1C(=O)N(SC)C1c1ccccc1Cl (centres undefined),23.4 µM (inactive),,,,,
Oc1c(CN2CCN(c3ccccc3)CC2)cc(Br)c2cccnc12,7.52 µM (inactive),,,,,
CC1OC(OC23C(=O)CC(C)(O)CC2(O)C=CC2=C3C(=O)c3ccc(C4CC(OC5CCC(OC6CC(O)C(O)C(C)O6)C(C)O5)C(O)C(C)O4)c(O)c3C2=O)CCC1O (centres undefined),,19.1 µM (inactive) and 19.7 µM (inactive),15.4 µM (inactive) and 11.5 µM (inactive),11.1 µM (inactive) and 13.6 µM (inactive),,GI50 [3]: 18.2 µM (inactive) and 18.9 µM (inactive); GI50 [5]: 17.5 µM (inactive) and 17.1 µM (inactive); GI50 [9]: 12.9 µM (inactive) and 20.1 µM (inactive)
CN(C)CCc1c2c(nc3ccccc13)C(=O)c1cccnc1C2=O,0.268 µM (active),,,,,
CN(C)c1ccc(/C=N/NC2=N/C(=C\c3ccco3)C(=O)N2)cc1,> 100 µM (inactive),,,,,
CC1CCN(C(C)C)P(=S)(Cc2ccccc2)O1 (centres undefined),28.1 µM (inactive),,,,,
CC(C)=CCC[C@@H](C)C1=C(O)C(=O)C(C)=C(Nc2ccccc2I)C1=O,23.6 µM (inactive),,,,,
Cc1nnc(-n2c(O)cc(=O)n(-c3ccccc3)c2=S)nc1/C=C/c1ccc(N(C)C)cc1,20.9 µM (inactive),,,,,
NS(=O)(=O)c1nn2c(Br)c(-c3ccccc3)nc2s1,2.97 µM (inactive),,,,,
NC1=NC(c2ccc(Cl)cc2)N(c2ccc(S(=O)(=O)Nc3ncccn3)cc2)C(N)=N1 (centres undefined),> 100 µM (inactive),,,,,
CCN(CC)c1c(C(=O)/C=C/c2ccc(Cl)cc2)c(-c2ccccc2)nn(C)c1=O,,2.47 µM (inactive),1.85 µM (inactive),1.73 µM (inactive),1.69 µM (inactive),GI50 [2]: 1.71 µM (inactive); GI50 [5]: 2.09 µM (inactive); GI50 [9]: 2.14 µM (inactive)
Cc1oc2nc1C(=O)NCc1nc(cs1)C(=O)N[C@H](C(C)C)c1nc(cs1)C(=O)N[C@H]2C,> 100 µM (inactive),,,,,
O=C(Cc1cc(=O)oc2cc(O)ccc12)N/N=C/c1ccc(N(CCCl)CCCl)cc1,16.4 µM (inactive),,,,,
NC(Cc1ccccc1)C(=O)OCN1C(=O)C2C3C=CC(C2C1=O)C1C2C(=O)N(COC(=O)C(N)Cc4ccccc4)C(=O)C2C31 (centres undefined),,28.4 µM (inactive),19.4 µM (inactive),23 µM (inactive),,GI50 [3]: 30.8 µM (inactive)
CC(=O)NNc1nc(C)c(C(=O)/C=C/c2ccc(N(C)C)cc2)s1,,> 100 µM (inactive),,> 100 µM (inactive),,GI50 [2]: > 100 µM (inactive); GI50 [5]: > 100 µM (inactive); GI50 [9]: > 100 µM (inactive)
O=c1oc2c(O)c(O)c(O)c3c(=O)oc4c(O)c(O)cc1c4c23 [FLAVELLAGIC ACID],,> 100 µM (inactive),73.1 µM (inactive),> 100 µM (inactive),9.79 µM (inactive),GI50 [2]: 85.1 µM (inactive); GI50 [5]: > 100 µM (inactive)
COc1ccc(C(=O)C(CC2C(=O)CC(C)(C)C(C(=O)C(=O)Nc3c(C)cccc3C)C2=O)c2ccc(OC)cc2)cc1 (centres undefined),> 100 µM (inactive),,,,,
CN1CCN(Cc2ccccc2)CC1CC#N (centres undefined),> 100 µM (inactive),,,,,
O=C(O)c1cc(-c2ccncc2)nc2ccccc12,> 100 µM (inactive),,,,,
